Test results published in PMC6165277 (2018).

Assays:
[1] = test system: ATP-binding aptamer incorporated DNA scaffold (DNA, duplex) ACCTGGGGGAGTATTGCGGAGGAAGGT/ACCTTCCTCCGCAATACTCCCCCAGGT; experiment: Dox fluorescence recovery (release of intercalated Dox); conditions: indirect; Dox/DNA mass ratio 1:10; recovery ~20, ~36, ~56% at 4, 8, 20 mM ATP
[2] = test system: ATP-binding aptamer incorporated DNA scaffold (DNA, duplex) ACCTGGGGGAGTATTGCGGAGGAAGGT/ACCTTCCTCCGCAATACTCCCCCAGGT; experiment: Dox fluorescence quenching titration; conditions: aqueous solution; Dox 1 µg/mL; maximum quenching at Dox/DNA mass ratio ~1:9.8

Row | binding [1] | binding [2] | SMILES
1 | yes | – | Nc1ncnc2c1ncn2[C@@H]1O[C@H](COP(=O)(O)OP(=O)(O)OP(=O)(O)O)[C@@H](O)[C@H]1O
2 | – | yes | COc1cccc2c1C(=O)c1c(O)c3c(c(O)c1C2=O)C[C@@](O)(C(=O)CO)C[C@@H]3O[C@H]1C[C@H](N)[C@H](O)[C@H](C)O1
